# Reference: ChEMBL document CHEMBL5724806, “Unraveling interindividual differences and functional consequences of gut microbial metabolism of immunosuppressants” (2024)
# Columns and labels:
# Type in all cases: ADME
# [1] = (§1) The drug is tested on Bifidobacterium longum strain: DSM20088 for biotransformation under anaerobic condition. The drug concentrations were measured over 6 timepoints collected between 0 and 12 hours of incubation by liquid-chromatography-coupled mass spectrometry (LC–MS); set-up: dose 5 uM, timepoint 0, 1.5, 3, 6, 9, 12 hours; settings: 5 µM
# [2] = The drug is tested on Collinsella aerofaciens strain: DSM3979 for biotransformation under anaerobic condition. The drug concentrations were measured over 6 timepoints collected between 0 and 12 hours of incubation by liquid-chromatography-coupled mass spectrometry (LC–MS); set-up: dose 5 uM, timepoint 0, 1.5, 3, 6, 9, 12 hours; settings: 5 µM
# [3] = The drug is tested on Bacteroides caccae strain: DSM19024 for biotransformation under anaerobic condition. The drug concentrations were measured over 6 timepoints collected between 0 and 12 hours of incubation by liquid-chromatography-coupled mass spectrometry (LC–MS); set-up: dose 5 uM, timepoint 0, 1.5, 3, 6, 9, 12 hours; settings: 5 µM
# [4] = The drug is tested on Bacteroides fragilis strain: DSM2151 for biotransformation under anaerobic condition. The drug concentrations were measured over 6 timepoints collected between 0 and 12 hours of incubation by liquid-chromatography-coupled mass spectrometry (LC–MS); set-up: dose 5 uM, timepoint 0, 1.5, 3, 6, 9, 12 hours; settings: 5 µM
# [5] = The drug is tested on Bacteroides uniformis strain: DSM6597 for biotransformation under anaerobic condition. The drug concentrations were measured over 6 timepoints collected between 0 and 12 hours of incubation by liquid-chromatography-coupled mass spectrometry (LC–MS); set-up: dose 5 uM, timepoint 0, 1.5, 3, 6, 9, 12 hours; settings: 5 µM
# [6] = The drug is tested on Bacteroides vulgatus strain: DSM1447 for biotransformation under anaerobic condition. The drug concentrations were measured over 6 timepoints collected between 0 and 12 hours of incubation by liquid-chromatography-coupled mass spectrometry (LC–MS); set-up: dose 5 uM, timepoint 0, 1.5, 3, 6, 9, 12 hours; settings: phocaeicola vulgatus, 5 µM
# [7] = The drug is tested on Blautia hansenii strain: DSM20583 for biotransformation under anaerobic condition. The drug concentrations were measured over 6 timepoints collected between 0 and 12 hours of incubation by liquid-chromatography-coupled mass spectrometry (LC–MS); set-up: dose 5 uM, timepoint 0, 1.5, 3, 6, 9, 12 hours; settings: 5 µM
# [8] = The drug is tested on Clostridium scindens strain: DSM5676 for biotransformation under anaerobic condition. The drug concentrations were measured over 6 timepoints collected between 0 and 12 hours of incubation by liquid-chromatography-coupled mass spectrometry (LC–MS); set-up: dose 5 uM, timepoint 0, 1.5, 3, 6, 9, 12 hours; settings: 5 µM
# [9] = The drug is tested on Dorea formicigenerans strain: DSM3992 for biotransformation under anaerobic condition. The drug concentrations were measured over 6 timepoints collected between 0 and 12 hours of incubation by liquid-chromatography-coupled mass spectrometry (LC–MS); set-up: dose 5 uM, timepoint 0, 1.5, 3, 6, 9, 12 hours; settings: 5 µM
# [10] = The drug is tested on Eubacterium rectale strain: DSM17629 for biotransformation under anaerobic condition. The drug concentrations were measured over 6 timepoints collected between 0 and 12 hours of incubation by liquid-chromatography-coupled mass spectrometry (LC–MS); set-up: dose 5 uM, timepoint 0, 1.5, 3, 6, 9, 12 hours; settings: agathobacter rectalis, 5 µM
# [11] = The drug is tested on Lactobacillus fermentum strain: DSM20052 for biotransformation under anaerobic condition. The drug concentrations were measured over 6 timepoints collected between 0 and 12 hours of incubation by liquid-chromatography-coupled mass spectrometry (LC–MS); set-up: dose 5 uM, timepoint 0, 1.5, 3, 6, 9, 12 hours; settings: limosilactobacillus fermentum, 5 µM
# [12] = The drug is tested on Lactobacillus gasseri strain: DSM20243 for biotransformation under anaerobic condition. The drug concentrations were measured over 6 timepoints collected between 0 and 12 hours of incubation by liquid-chromatography-coupled mass spectrometry (LC–MS); set-up: dose 5 uM, timepoint 0, 1.5, 3, 6, 9, 12 hours; settings: 5 µM
# [13] = The drug is tested on Lactobacillus paracasei strain: ATCC27092 for biotransformation under anaerobic condition. The drug concentrations were measured over 6 timepoints collected between 0 and 12 hours of incubation by liquid-chromatography-coupled mass spectrometry (LC–MS); set-up: dose 5 uM, timepoint 0, 1.5, 3, 6, 9, 12 hours; settings: lacticaseibacillus paracasei, 5 µM
# [14] = The drug is tested on Streptococcus sanguinis strain: DSM20567 for biotransformation under anaerobic condition. The drug concentrations were measured over 6 timepoints collected between 0 and 12 hours of incubation by liquid-chromatography-coupled mass spectrometry (LC–MS); set-up: dose 5 uM, timepoint 0, 1.5, 3, 6, 9, 12 hours; settings: 5 µM
# [15] = (§2) The drug is tested on Actinomyces graevenitzii strain: DSM15540 for biotransformation under microaerobic condition. The drug concentrations were measured over 6 timepoints collected between 0 and 12 hours of incubation by liquid-chromatography-coupled mass spectrometry (LC–MS); set-up: dose 5 uM, timepoint 0, 1.5, 3, 6, 9, 12 hours; settings: 5 µM
# [16] = The drug is tested on Gemella haemolysans strain: DSM107751 for biotransformation under microaerobic condition. The drug concentrations were measured over 6 timepoints collected between 0 and 12 hours of incubation by liquid-chromatography-coupled mass spectrometry (LC–MS); set-up: dose 5 uM, timepoint 0, 1.5, 3, 6, 9, 12 hours; settings: 5 µM
# [17] = The drug is tested on Lactobacillus paracasei strain: ATCC27092 for biotransformation under microaerobic condition. The drug concentrations were measured over 6 timepoints collected between 0 and 12 hours of incubation by liquid-chromatography-coupled mass spectrometry (LC–MS); set-up: dose 5 uM, timepoint 0, 1.5, 3, 6, 9, 12 hours; settings: lacticaseibacillus paracasei, 5 µM
# [18] = as §1, with “the gut metagenome community of A-02 with ENA study accession number: PRJEB31790” for “Bifidobacterium longum strain: DSM20088”, “7” for “6”; set-up: dose 5 uM, timepoint 0, 0.75, 1.5, 3, 6, 9, 12 hours; settings: 5 µM
# [19] = as §1, with “the gut metagenome community of A-06 with ENA study accession number: PRJEB31790” for “Bifidobacterium longum strain: DSM20088”, “7” for “6”; set-up: dose 5 uM, timepoint 0, 0.75, 1.5, 3, 6, 9, 12 hours; settings: 5 µM
# [20] = as §1, with “the gut metagenome community of A-08 with ENA study accession number: PRJEB31790” for “Bifidobacterium longum strain: DSM20088”, “7” for “6”; set-up: dose 5 uM, timepoint 0, 0.75, 1.5, 3, 6, 9, 12 hours; settings: 5 µM
# [21] = as §1, with “the gut metagenome community of P-02 with ENA study accession number: PRJEB31790” for “Bifidobacterium longum strain: DSM20088”, “7” for “6”; set-up: dose 5 uM, timepoint 0, 0.75, 1.5, 3, 6, 9, 12 hours; settings: 5 µM
# [22] = as §1, with “the gut metagenome community of P-03 with ENA study accession number: PRJEB31790” for “Bifidobacterium longum strain: DSM20088”, “7” for “6”; set-up: dose 5 uM, timepoint 0, 0.75, 1.5, 3, 6, 9, 12 hours; settings: 5 µM
# [23] = as §1, with “the gut metagenome community of T-04 with ENA study accession number: PRJEB31790” for “Bifidobacterium longum strain: DSM20088”, “7” for “6”; set-up: dose 5 uM, timepoint 0, 0.75, 1.5, 3, 6, 9, 12 hours; settings: 5 µM
# [24] = as §1, with “the gut metagenome community of T-05 with ENA study accession number: PRJEB31790” for “Bifidobacterium longum strain: DSM20088”, “7” for “6”; set-up: dose 5 uM, timepoint 0, 0.75, 1.5, 3, 6, 9, 12 hours; settings: 5 µM
# [25] = as §2, with “the gut metagenome community of A-02 with ENA study accession number: PRJEB31790” for “Actinomyces graevenitzii strain: DSM15540”, “7” for “6”; set-up: dose 5 uM, timepoint 0, 0.75, 1.5, 3, 6, 9, 12 hours; settings: 5 µM
# [26] = as §2, with “the gut metagenome community of A-03 with ENA study accession number: PRJEB31790” for “Actinomyces graevenitzii strain: DSM15540”, “7” for “6”; set-up: dose 5 uM, timepoint 0, 0.75, 1.5, 3, 6, 9, 12 hours; settings: 5 µM
# [27] = as §2, with “the gut metagenome community of A-09 with ENA study accession number: PRJEB31790” for “Actinomyces graevenitzii strain: DSM15540”, “7” for “6”; set-up: dose 5 uM, timepoint 0, 0.75, 1.5, 3, 6, 9, 12 hours; settings: 5 µM
# [28] = as §2, with “the gut metagenome community of P-02 with ENA study accession number: PRJEB31790” for “Actinomyces graevenitzii strain: DSM15540”, “7” for “6”; set-up: dose 5 uM, timepoint 0, 0.75, 1.5, 3, 6, 9, 12 hours; settings: 5 µM
# [29] = as §2, with “the gut metagenome community of T-04 with ENA study accession number: PRJEB31790” for “Actinomyces graevenitzii strain: DSM15540”, “7” for “6”; set-up: dose 5 uM, timepoint 0, 0.75, 1.5, 3, 6, 9, 12 hours; settings: 5 µM
# [30] = as §2, with “the gut metagenome community of T-05 with ENA study accession number: PRJEB31790” for “Actinomyces graevenitzii strain: DSM15540”, “7” for “6”; set-up: dose 5 uM, timepoint 0, 0.75, 1.5, 3, 6, 9, 12 hours; settings: 5 µM
Bacterial Biotransformation [1],Bacterial Biotransformation [2],Bacterial Biotransformation [3],Bacterial Biotransformation [4],Bacterial Biotransformation [5],Bacterial Biotransformation [6],Bacterial Biotransformation [7],Bacterial Biotransformation [8],Bacterial Biotransformation [9],Bacterial Biotransformation [10],Bacterial Biotransformation [11],Bacterial Biotransformation [12],Bacterial Biotransformation [13],Bacterial Biotransformation [14],Bacterial Biotransformation [15],Bacterial Biotransformation [17],Bacterial Biotransformation [18],Bacterial Biotransformation [19],Bacterial Biotransformation [20],Structure (SMILES),Bacterial Biotransformation [16],other results
Compound NOT metabolized,Compound NOT metabolized,Compound NOT metabolized,Compound NOT metabolized,Compound NOT metabolized,Compound NOT metabolized,Compound NOT metabolized,Compound metabolized,Compound NOT metabolized,Compound NOT metabolized,Compound NOT metabolized,Compound NOT metabolized,Compound NOT metabolized,Compound NOT metabolized,Compound NOT metabolized,Compound NOT metabolized,Compound metabolized,Compound metabolized,Compound metabolized,C[C@]12CCC(=O)C=C1CC[C@@H]1[C@@H]2[C@@H](O)C[C@@]2(C)[C@H]1CC[C@]2(O)C(=O)CO [HYDROCORTISONE],Compound NOT metabolized,Bacterial Biotransformation [21]: Compound NOT metabolized; Bacterial Biotransformation [22]: Compound metabolized; Bacterial Biotransformation [23]: Compound NOT metabolized; Bacterial Biotransformation [24]: Compound metabolized; Bacterial Biotransformation [25]: Compound metabolized; Bacterial Biotransformation [26]: Compound metabolized; Bacterial Biotransformation [27]: Compound metabolized; Bacterial Biotransformation [28]: Compound NOT metabolized; Bacterial Biotransformation [29]: Compound NOT metabolized; Bacterial Biotransformation [30]: Compound metabolized
Compound NOT metabolized,Compound NOT metabolized,Compound NOT metabolized,Compound NOT metabolized,Compound NOT metabolized,Compound NOT metabolized,Compound NOT metabolized,Compound metabolized,Compound NOT metabolized,Compound NOT metabolized,Compound NOT metabolized,Compound NOT metabolized,Compound NOT metabolized,Compound NOT metabolized,Compound NOT metabolized,Compound NOT metabolized,Compound metabolized,Compound metabolized,Compound NOT metabolized,C[C@@H]1C[C@H]2[C@@H]3CCC4=CC(=O)C=C[C@]4(C)[C@@]3(F)[C@@H](O)C[C@]2(C)[C@@]1(O)C(=O)CO [DEXAMETHASONE],Compound NOT metabolized,Bacterial Biotransformation [21]: Compound metabolized; Bacterial Biotransformation [22]: Compound NOT metabolized; Bacterial Biotransformation [23]: Compound NOT metabolized; Bacterial Biotransformation [24]: Compound NOT metabolized; Bacterial Biotransformation [25]: Compound metabolized; Bacterial Biotransformation [26]: Compound NOT metabolized; Bacterial Biotransformation [27]: Compound metabolized; Bacterial Biotransformation [28]: Compound NOT metabolized; Bacterial Biotransformation [29]: Compound NOT metabolized; Bacterial Biotransformation [30]: Compound NOT metabolized
